Results from patent US11008325B2, “Inhibitors of cancer invasion, attachment, and/or metastasis” (VIRGINIA COMMONWEALTH UNIVERSITY, priority 2016, dated 2021).
Entries after “also recorded” stand apart in the source; their conditions may differ.

Columns and labels:
ImPHFA cells = test: clonogenic radiosurvival (colony formation); format: cell-based, human; settings: 50 μM PDZ1i 2 h prior to radiation, 14 d
Procedure: (§1) FIGS. 8A-8D. PDZ1i produces similar effects to mda-9/syntenin knockdown post-radiation. FIG. 8A. ImPHFA and U87 cells were treated with 50 μM PDZ1i 2 h prior to radiation and analyzed for colony formation after 14 d. FIG. 8B. U87 cells were treated with 50 μM PDZ1i 2 h prior to radiation and analyzed via MTT assay after 24 h. FIG. 8C. U87 cells were pretreated with 50 μM PDZ1i 2 h prior to radiation and subsequently seeded in a trans-well Matrigel invasion assay and stained after 24 h. Invasion was quantified from 5 random fields in FIG. 8D. Error bars=±s.d. *p<0.05, **p<0.01.
(§2) Clonogenic radiosurvival experiments were carried out as described previously (4,7). Briefly, cells were diluted, seeded on 6-cm dishes, and after the cells attached, treated with DMSO or PDZ1i (12.5, 25, or 50 μM) in the medium for 2 h before irradiation. Cells were incubated overnight, and the medium changed to nondrug containing medium 16 h postirradiation. Cells were incubated further for 14 days, stained with 2% Giemsa solution, and colonies consisting of 50 or more were counted. Cell viability was assessed through MTT analysis as described previously (8).

U87 cells = test: clonogenic radiosurvival (colony formation); format: cell-based, human; settings: 50 μM PDZ1i 2 h prior to radiation, 14 d
Procedure: as §1, §2

[1] = test system: HBMEC barrier over GBM6 cells; test: HBMEC transwell blood brain barrier surrogate assay; format: in vitro ADME, human; settings: 50 μM PDZ1i, 24 h, read out as GBM6 invasion
Procedure: FIG. 12. PDZ1i crosses the blood brain barrier (BBB). Primary human malignant glioma cells (GBM6) were seeded on the bottom well of a transwell chamber. In the top chamber, a monolayer of HBMEC cells separated GBM6 cells from media containing DMSO, 50 μM PDZ1i or Temozolomide (500 μM). After 24 h incubation in these conditions, invasion of GBM6 cells were analyzed by seeding in a trans-well Matrigel invasion assay and stained after 24 h. NB: PDZ1i treatment and invasion assay without HBMEC barrier. Error bars=f s.d.
A critical property of a potential therapeutic agent is its stability in the circulation and bioavailability in vivo. […] Additionally, when treating glioma pharmaceutically, the ability for a compound to cross the blood brain barrier (BBB) is paramount. […] Prior to in vivo efficacy studies, we evaluated the ability of the compound to cross the blood brain barrier using a target-based surrogate cellular assay. This method is preferred to direct in vivo measurements of compound concentration in the brain because of low sensitivity of the detection methods, and most importantly because of the presence of drug in various vascular spaces, i.e., the residual blood of the brain. […] After 24 h, we assessed the invasive ability of the treated GBM6 cells compared to pretreated controls. […]

[2] = test system: various types of cancer cells including PC; test: modified Boyden Chamber invasion assay; format: cell-based, human; settings: pre-treatment, dose as indicated (20 μM or 40 μM)
Procedure: (§3) FIGS. 17A-17H. Effect of PDZ1i on invasion, MDA-9/IGF-R1 interaction and IGF-R1, STAT3 and SRC phosphorylation. FIG. 17A) Different cancer cells (25,000 cells/well) from various anatomic origins were pre-treated with either DMSO (vehicle) or PDZ1i (dose as indicated) and invasion ability was assayed using modified Boyden Chamber according to the manufacturer's instructions. Photomicrographs were taken at 10× magnification and quantification of the results of three independent experiments is provided in the graphs. The data presents mean±S.D. B) The designated cells were treated with DMSO or PDZ1i and invasion properties were determined using a modified Boyden Chamber assay (BD bioscience). RWPE-1 mda-9: mda-9 transiently overexpressing cell line. […] FIG. 17E) Cells were growth starved for 24 h and treated with either DMSO or PDZ1i (dose indicated in μM) for 6 h. Cells were treated with human recombinant IGFBP-2 (hIGFBP-2, 10 ng/ml) for 2 h, lysates were prepared and western blot analysis was conducted with specific antibodies. […] Cells were treated with human recombinant IL-6 (hIGFBP-2, 1 ng/ml) for 2 h, cell lysates were prepared and analyzed by western blotting. […]
(§4) Boyden chamber assays were done to investigate the invasive properties of cancer cells^26, 27. […] After 18 h, invasive cells were photographed and analyzed.

[3] = test system: RWPE-1 cells overexpressing mda-9; test: modified Boyden Chamber invasion assay; format: cell-based, human
Procedure: as §3, §4

cancer cells = test: toxicity to cultured cells; format: cell-based, human
[4] = toxicity in vivo in pre-clinical animal models; settings: listed as PDZ1i

In the case of `Cc1cc(NC(=O)c2nc3[nH]c4c(c(=O)n3n2)CCC4)c(C)cc1NC(=O)CCc1nnc(-c2ccccc2)o1` [113B7, N-(2,5-dimethyl-4-(3-(5-phenyl-1,3,4-oxadiazol-2-yl)propanamido)phenyl)-8-oxo-5,6,7,8-tetrahydro-4H-cyclopenta[d][1,2,4]triazolo[1,5-a]pyrimidine-2-carboxamide], the “radiosensitivity (colony formation)” value (ImPHFA cells) is reported as “did not further radiosensitize”, the “radiosensitivity (colony formation)” value (U87 cells) is reported as “markedly more radiosensitivity” and the “crossing of the HBMEC barrier (blood brain barrier surrogate)” value [1] is reported as “effectively crossed the HBMEC barrier”. The invasion [2] was “inhibited invasion in a dose-dependent manner; also recorded: significantly inhibited the invasion”, the invasion ([2]; listed as PDZ1i) was “significantly inhibited the invasion” and the mda-9-mediated invasion [3] was “significantly attenuated”. For the same compound, the “toxicity to primary normal cells and cancer cells” value (cancer cells) was “non-toxic”, the toxicity (cancer cells; tested at 50 μM) was “did not show any toxicity” and the cytotoxicity (cancer cells; tested up to 20 μM) was “did not show any significant cytotoxicity”. The “toxicity / tolerability in vivo” value [4] was “well-tolerated; also recorded: no apparent toxicity”.
